US20090227670A1, “PHARMACEUTICAL COMPOSITIONS COMPRISING FLAVONOIDS AND MENTHOL” (priority 2002, published 2009)

Assays:
Format in all cases: cell-based, human rhinovirus
rhinovirus-T39 = assay: antiviral activity of HuIFN-α versus rhinovirus in presence and absence of menthol (MTS method, WISH cells); conditions: menthol 1:800
Procedure: Rhinovirus 1A, rhinovirus 15 and rhinovirus 39 were titrated according to the tetrazolium salt (MTS)-method (Berg et al., 1990) (Hansen et al., 1989)). WISH cells were seeded in a micro tray at 3000 cells per well and incubated at 37° C., 5% CO2 overnight; the following morning the medium was replaced with 10-fold dilutions of either rhinovirus 1A, rhinovirus 15 or rhinovirus 39, respectively, in fresh medium and the trays were incubated 4-5 days at 33° C.; a microscopical examination confirmed that the CytoPathogenic Effect (CPE) was fully developed (CPE equal to 100%). The minimal amount of virus (i.e.: the highest dilution of the virus in question) which produced 100% destruction was used as “challenge virus” in the subsequent experiments. To quantitate the CPE in terms of % destruction, MTS (Berg and Owen, 2003) was added to all cultures and after 3 h incubation at 37° C. (without CO2) the trays were read in a scanner as previously described (Berg et al., 1990). […]
The results were graphed with the concentration of interferon on the horizontal scale and the OD492 readings on the vertical scale.

rhinovirus T39 = assay: rhinovirus titration on WISH cell monolayers in presence or absence of menthol; conditions: menthol dilution 1:800; virus dilution range 10^2-10^3; WISH cells (FIG. 2A)
Procedure: Rhinovirus 1A, rhinovirus 15 and rhinovirus 39 were titrated according to the tetrazolium salt (MTS)-method (Berg et al., 1990) (Hansen et al., 1989)). WISH cells were seeded in a micro tray at 3000 cells per well and incubated at 37° C., 5% CO2 overnight; the following morning the medium was replaced with 10-fold dilutions of either rhinovirus 1A, rhinovirus 15 or rhinovirus 39, respectively, in fresh medium and the trays were incubated 4-5 days at 33° C.; a microscopical examination confirmed that the CytoPathogenic Effect (CPE) was fully developed (CPE equal to 100%). The minimal amount of virus (i.e.: the highest dilution of the virus in question) which produced 100% destruction was used as “challenge virus” in the subsequent experiments. To quantitate the CPE in terms of % destruction, MTS (Berg and Owen, 2003) was added to all cultures and after 3 h incubation at 37° C. (without CO2) the trays were read in a scanner as previously described (Berg et al., 1990). Control cell cultures, that were not infected with virus, were included in the experiment; the latter gave the highest OD as these cells were not damaged; depending on the concentration of virus added to the different wells, the OD492 varied, accordingly: 100% CPE yielded a low OD (<0.200); 0% CPE corresponding to no infection at all (controls cell) gave a high OD (>1.200). […]

RHV 1A, 17, and 39A = assay: rhinovirus titration in presence of menthol, all three rhinoviruses employed
Procedure: WISH cells were seeded in a micro tray at 3000 cells per well and incubated at 37° C., 5% CO2 overnight; the following morning the medium was replaced with 10-fold dilutions of either rhinovirus 1A, […], respectively, in fresh medium and the trays were incubated 4-5 days at 33° C.; a microscopical examination confirmed that the CytoPathogenic Effect (CPE) was fully developed (CPE equal to 100%). The minimal amount of virus (i.e.: the highest dilution of the virus in question) which produced 100% destruction was used as “challenge virus” in the subsequent experiments. To quantitate the CPE in terms of % destruction, MTS (Berg and Owen, 2003) was added to all cultures and after 3 h incubation at 37° C. (without CO2) the trays were read in a scanner as previously described (Berg et al., 1990). Control cell cultures, that were not infected with virus, were included in the experiment; the latter gave the highest OD as these cells were not damaged; depending on the concentration of virus added to the different wells, the OD492 varied, accordingly: 100% CPE yielded a low OD (<0.200); 0% CPE corresponding to no infection at all (controls cell) gave a high OD (>1.200). […]

For `CC(C)[C@@H]1CC[C@@H](C)C[C@H]1O` [Menthol, levo-(−)-Menthol], the “potentiation of interferon antiviral activity (interferon curve+menthol versus interferon curve)” value (rhinovirus-T39; interferon range 0 to 8 units/ml, HRV T39, similar at 10^-2.5) was “specific potentiation”, the “protection compared to uninfected control cells” value (rhinovirus-T39; HRV T39 at 10^-2, IFN=0 units/ml, WISH cells, OD492 (FIG. 1A)) was 10-15% and the “increase in protection compared to virus controls receiving no menthol” value (rhinovirus T39) was about 50%. For the same molecule, the protection against rhinovirus (RHV 1A, 17, and 39A) was “protection was seen”.
